In general, IC50 refers to the concentration that gives 50% inhibition. Low readings indicate greater potency, high ones weaker potency.

We go through 30 compounds from patent publication US12162878B2 (HINOVA PHARMACEUTICALS INC., priority 2018, dated 2024).

Molecules are shown by their SMILES.

For this assay, the system named is CWR22RV1 cells. The experiment in a line: Inhibition of proliferation of CWR22RV1 cells (CCK-8). The format is cell-based, human. The following applies: Homo sapiens, CWR22Rv1, 144 h, 6 days. In a few lines: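 Cells seeded at 1500/well, cultured overnight, then exposed to compounds in 3-fold dilutions (9 concentrations from 10 μM top final, 0.1% DMSO) for 6 days at 37 °C. Viability read by CCK-8 absorbance at 450 nm after 2.5 h; IC50 from dose-response inhibition fit.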
With `[2H]C([2H])([2H])n1cc(-c2cc(NS(C)(=O)=O)ccc2N2CCC3(CC2)COC3)c2cc[nH]c2c1=O` [Compound 189, N-(3-(6-trideuteromethyl-7-oxo-6,7-dihydro-1H-pyrrolo[2,3-c]pyridin-4-yl)-4-(2-oxa-7-aza-spiro[3.5]nonan-7-yl)phenyl)methanesulfonamide], inhibition was half-maximal at 120 nM (IC50).

The compound `[2H]C([2H])([2H])n1cc(-c2cc(S(=O)(=O)CC)ccc2N2CCC3(CC2)CC3)c2cc[nH]c2c1=O` [Compound 232, 4-(5-(ethylsulfonyl)-2-(6-aza-spiro[2.5]octan-6-yl)phenyl)-6-trideuteromethyl-1H-pyrrolo[2,3-c]pyridin-7(6H)-one] displayed an IC50 of 0.6 nM.

`[2H]C([2H])([2H])n1cc(-c2cc(S(C)(=O)=O)ccc2N2CC3(COC3)C2)c2cc[nH]c2c1=O` [Compound 64, 6-trideuteromethyl-4-(5-(methylsulfonyl)-2-(2-oxa-6-aza-spiro[3.3]heptan-6-yl)phenyl)-1H-pyrrolo[2,3-c]pyridin-7(6H)-one] registered an IC50 of 380 nM.

The compound `[2H]C([2H])([2H])n1cc(-c2cc(S(=O)(=O)N3CCCC3C(=O)O)ccc2N2CCC3(CC2)CC3(F)F)c2cc[nH]c2c1=O` (stereo not drawn) [Compound 244, 1-((4-(1,1-difluoro-6-aza-spiro[2.5]octan-6-yl)-3-(6-trideuteromethyl-7-oxo-6,7-dihydro-1H-pyrrolo[2,3-c]pyridin-4-yl)phenyl)sulfonyl)pyrrolidin-2-carboxylic acid] gave a half-inhibitory concentration (IC50) of 81 nM.

The compound `[2H]C([2H])([2H])n1cc(-c2cc(S(C)(=O)=O)ccc2N2CCC3(CC2)CC3C(N)=O)c2cc[nH]c2c1=O` (stereo not drawn) [Compound 185, 6-(2-(6-trideuteromethyl-7-oxo-6,7-dihydro-1H-pyrrolo[2,3-c]pyridin-4-yl)-4-(methylsulfonyl)phenyl)-6-aza-spiro[2.5]octan-1-formamide] showed an IC50 of 1040 nM.

The compound `CCOC(=O)C1CC12CCN(c1ccc(NS(=O)(=O)CC)cc1-c1cn(C)c(=O)c3[nH]ccc13)CC2` (stereo not drawn) [Compound 19] came in with a concentration for half-maximal inhibition (IC50) of 410 nM.

On to `Cn1cc(-c2cc(NS(=O)(=O)C3CC3)ccc2N2CC3(CCC3)C2)c2cc[nH]c2c1=O` [Compound 10, N-(3-(6-methyl-7-oxo-6,7-dihydro-1H-pyrrolo[2,3-c]pyridin-4-yl)-4-(2-aza-spiro[3.3]heptan-2-yl)phenyl)cyclopropanesulfonamide], for which the IC50 stood at 29 nM.

`Cn1cc(-c2cc(NS(=O)(=O)C3COC3)ccc2N2CC3(CCC3)C2)c2cc[nH]c2c1=O` [Compound 12, N-(3-(6-methyl-7-oxo-6,7-dihydro-1H-pyrrolo[2,3-c]pyridin-4-yl)-4-(2-aza-spiro[3.3]heptan-2-yl)phenyl)oxetane-3-sulfonamide] came in with an IC50 of 89 nM.

Compound `CCS(=O)(=O)Nc1ccc(N2CCC3(CC3)C2)c(-c2cn(C)c(=O)c3[nH]ccc23)c1` [Compound 7, N-(3-(6-methyl-7-oxo-6,7-dihydro-1H-pyrrolo[2,3-c]pyridin-4-yl)-4-(5-aza-spiro[2.4]heptan-5-yl)phenyl)ethylsulfonamide] yielded an IC50 of 18 nM.

Regarding `[2H]C([2H])([2H])n1cc(-c2cc(NS(C)(=O)=O)ccc2N2CC3(COC3)C2)c2cc[nH]c2c1=O` [Compound 48, N-(3-(6-trideuteromethyl-7-oxo-6,7-dihydro-1H-pyrrolo[2,3-c]pyridin-4-yl)-4-(2-oxa-6-aza-spiro[3.3]heptan-6-yl)phenyl)methanesulfonamide], the 50% inhibitory concentration (IC50) turned out to be 400 nM.

The compound `[2H]C([2H])([2H])n1cc(-c2cc(S(=O)(=O)C(C)C)cnc2N2CCC3(CC2)CC3)c2cc[nH]c2c1=O` [Compound 188, 4-(5-(isopropylsulfonyl)-2-(6-aza-spiro[2.5]octan-6-yl)pyridin-3-yl)-6-trideuteromethyl-1H-pyrrolo[2,3-c]pyridin-7(6H)-one] displayed a concentration for half-maximal inhibition (IC50) of 38 nM.

As to `[2H]C([2H])([2H])n1cc(-c2cc(NS(=O)(=O)C3COC3)ccc2N2CC3(CCC3)C2)c2cc[nH]c2c1=O` [Compound 45, N-(3-(6-trideuteromethyl-7-oxo-6,7-dihydro-1H-pyrrolo[2,3-c]pyridin-4-yl)-4-(2-aza-spiro[3.3]heptan-2-yl)phenyl) oxetane-3-sulfonamide], half-maximal inhibition (IC50) required 110 nM.

Consider `CCOC(=O)C1CC12CCN(c1ccc(S(C)(=O)=O)cc1-c1cn(C)c(=O)c3[nH]ccc13)CC2` (stereo not drawn) [Compound 38, ethyl 6-(2-(6-methyl-7-oxo-6,7-dihydro-1H-pyrrolo[2,3-c]pyridin-4-yl)-4-(methylsulfonyl)phenyl)-6-azaspiro[2.5]octane-1-carboxylate], for which the half-maximal inhibitory concentration (IC50) came out at 410 nM.

Take `Cn1cc(-c2cc(S(C)(=O)=O)ccc2N2CCC3(CC3)C2)c2cc[nH]c2c1=O` [Compound 24, 6-methyl-4-(5-(methylsulfonyl)-2-(5-aza-spiro[2.4]heptan-5-yl)phenyl)-1H-pyrrolo[2,3-c]pyridin-7(6H)-one]: it took 17 nM to reach half-maximal inhibition (IC50).

Compound `Cn1cc(-c2cc(N)ccc2N2CCC3(CC2)CC3)c2cc[nH]c2c1=O` [Compound 245, 4-(5-amino-2-(6-aza-spiro[2.5]octan-6-yl)phenyl)-6-methyl-1H-pyrrolo[2,3-c]pyridin-7(6H)-one] showed a 50% inhibitory concentration (IC50) of 230 nM.

The compound `CC(=O)Nc1ccc(N2CCC3(CC2)COC3)c(-c2cn(C)c(=O)c3[nH]ccc23)c1` [Compound 230] had a half-inhibitory concentration (IC50) of 250 nM.

On to `Cn1cc(-c2cc(NS(C)(=O)=O)ccc2N2CC3(COC3)C2)c2cc[nH]c2c1=O` [Compound 15, N-(3-(6-methyl-7-oxo-6,7-dihydro-1H-pyrrolo[2,3-c]pyridin-4-yl)-4-(2-oxa-6-aza-spiro[3.3]heptan-6-yl)phenyl)methanesulfonamide], for which the half-inhibitory concentration (IC50) came to 650 nM.

`Cn1cc(-c2cc(S(C)(=O)=O)ccc2N2CCC3(CC2)CC3)c2cc[nH]c2c1=O` [Compound 26, 6-methyl-4-(5(methylsulfonyl)-2-(6-aza-spiro[2.5]octan-6-yl)phenyl)-1H-pyrrolo[2,3-c]pyridin-7(6H)-one]: the IC50 came out at 6 nM.

For `COC(=O)c1ccc(N2CCC3(CC2)CC3)c(-c2cn(C)c(=O)c3[nH]ccc23)c1` [Compound 222, methyl 3-(6-methyl-7-oxo-6,7-dihydro-1H-pyrrolo[2,3-c]pyridin-4-yl)-4-(6-aza-spiro[2.5]octan-6-yl)benzoate], the IC50 is 350 nM.

For `Cn1cc(-c2cc(S(C)(=O)=O)ccc2N2CCCC3(CC3)C2)c2cc[nH]c2c1=O` [Compound 27, 6-methyl-4-(5(methylsulfonyl)-2-(5-aza-spiro[2.5]octan-5-yl)phenyl)-1H-pyrrolo[2,3-c]pyridin-7(6H)-one], the IC50 amounted to 31 nM.

The compound `[2H]C([2H])([2H])n1cc(-c2cc(S(C)(=O)=O)ccc2N2CCC3(CC2)CC3C(=O)OCC)c2cc[nH]c2c1=O` (stereo not drawn) [Compound 68, ethyl 6-(2-(6-trideuteromethyl-7-oxo-6,7-dihydro-1H-pyrrolo [2,3-c]pyridin-4-yl)-4-(methylsulfonyl)phenyl)-6-aza-spiro[2.5]octan-1-carboxylate] came in with an IC50 of 530 nM.

As for `Cn1cc(-c2cc(S(C)(=O)=O)ccc2N2CC3(COC3)C2)c2cc[nH]c2c1=O` [Compound 34, 6-methyl-4-(5-(methylsulfonyl)-2-(2-oxa-6-aza-spiro[3.3]heptan-6-yl)phenyl)-1H-pyrrolo[2,3-c]pyridin-7(6H)-one], the IC50 came out at 380 nM.

Regarding `CC(=O)c1ccc(N2CCC3(CC2)CC3)c(-c2cn(C)c(=O)c3[nH]ccc23)c1` [Compound 223, 4-(5-acetyl-2-(6-aza-spiro[2.5]octan-6-yl)phenyl)-6-methyl-1H-pyrrolo[2,3-c]pyridin-7(6H)-one], the IC50 amounted to 110 nM.

`[2H]C([2H])([2H])n1cc(-c2cc(S(N)(=O)=O)cnc2N2CCC3(CC3)C2)c2cc[nH]c2c1=O` [Compound 198, 5-(6-trideuteromethyl-7-oxo-6,7-dihydro-1H-pyrrolo[2,3-c]pyridin-4-yl)-6-(5-aza-spiro[2.4]heptan-5-yl)pyridin-3-sulfonamide]: the IC50 is 10 nM.

As for `CCCCS(=O)(=O)c1ccc(N2CC3(CCC3)C2)c(-c2cn(C)c(=O)c3[nH]ccc23)c1` [Compound 32], half-maximal inhibition (IC50) required 65 nM.

The compound `[2H]C([2H])([2H])n1cc(-c2cc(NS(=O)(=O)CC)ccc2N2CCC3(CC3)C2)c2cc[nH]c2c1=O` [Compound 40, N-(3-(7-oxo-6-(trideuteromethyl)-6,7-dihydro-1H-pyrrolo[2,3-c]pyridin-4-yl)-4-(5-aza-spiro[2.4]heptan-5-yl)phenyl)ethylsulfonamide] displayed an IC50 of 15 nM.

As to `[2H]C([2H])([2H])n1cc(-c2cc(S(C)(=O)=O)ccc2N2CCC3(CC2)COC3)c2cc[nH]c2c1=O` [Compound 183, 6-trideuteromethyl-4-(5-(methylsulfonyl)-2-(2-oxa-7-aza-spiro [3.5]nonan-7-yl)phenyl)-1H-pyrrolo[2,3-c]pyridin-7(6H)-one], inhibition was half-maximal at 63 nM (IC50).

`[2H]C([2H])([2H])n1cc(-c2cc(S(=O)(=O)CC)ccc2N2CC3(COC3)C2)c2cc[nH]c2c1=O` [Compound 65, 4-(5-(ethylsulfonyl)-2-(2-oxa-6-aza-spiro[3.3]heptan-6-yl)phenyl)-6-trideuteromethyl-1H-pyrrolo[2,3-c]pyridin-7(6H)-one] showed an IC50 of 410 nM.

In the case of `Cn1cc(-c2cc(NC(=O)CCC(=O)O)ccc2N2CCC3(CC2)CC3)c2cc[nH]c2c1=O` [Compound 247, 4-((3-(6-methyl-7-oxo-6,7-dihydro-1H-pyrrolo[2,3-c]pyridin-4-yl)-4-(6-aza-spiro[2.5]octan-6-yl)phenyl)amino)-4-oxobutyric acid], the 50% inhibitory concentration (IC50) stood at 670 nM.

`Cn1cc(-c2cc(S(=O)(=O)C3COC3)ccc2N2CC3(CCC3)C2)c2cc[nH]c2c1=O` [Compound 31, 6-methyl-4-(5-(oxetane-3-ylsulfonyl)-2-(2-aza-spiro[3.3]heptan-2-yl)phenyl)-1H-pyrrolo[2,3-c]pyridin-7(6H)-one]: half-maximal inhibition (IC50) was put at 50 nM.
